± gives the expanded uncertainty stated by the source.
Experiment: mn = molality of the nth substance listed, in mol/kg
Conditions: 100 kPa, Liquid; for mass density: Vibrating tube method; for speed of sound: Frequency=2 MHz, Linear variable-path acoustic interferometer

CCCCn1cc[n+](C)c1.CC[C@H](C)[C@H](N)C(=O)[O-] [1-butyl-3-methyl-1H-imidazolium L-isoleucinate] + O
Conditions	mass density [kg/m3]	speed of sound [m/s]
293.15 K, m1 = 0.02906	999.041 ± 0.11	–
293.15 K, m1 = 0.04398	999.456 ± 0.11	–
293.15 K, m1 = 0.05752	999.834 ± 0.11	–
293.15 K, m1 = 0.0722	1000.24 ± 0.11	–
293.15 K, m1 = 0.07899	1000.43 ± 0.11	–
293.15 K, m1 = 0.1182	1001.49 ± 0.11	–
293.15 K, m1 = 0.1456	1002.23 ± 0.11	–
293.15 K, m1 = 0.1662	1002.78 ± 0.11	–
293.15 K, m1 = 0.1765	1003.05 ± 0.11	–
293.15 K, m1 = 0.2502	1004.97 ± 0.11	–
293.15 K, m1 = 0.2937	1006.09 ± 0.11	–
293.15 K, m1 = 0.3356	1007.15 ± 0.11	–
293.15 K, m1 = 0.3802	1008.26 ± 0.11	–
298.15 K, m1 = 0.02906	997.851 ± 0.11	–
298.15 K, m1 = 0.04398	998.255 ± 0.11	–
298.15 K, m1 = 0.0472	–	1507.8 ± 2.5
298.15 K, m1 = 0.05752	998.616 ± 0.11	–
298.15 K, m1 = 0.0722	999.019 ± 0.11	–
298.15 K, m1 = 0.07899	999.193 ± 0.11	–
298.15 K, m1 = 0.1029	–	1519.2 ± 2.5
298.15 K, m1 = 0.1182	1000.22 ± 0.11	–
298.15 K, m1 = 0.1456	1000.93 ± 0.11	–
298.15 K, m1 = 0.1481	–	1528.4 ± 2.5
298.15 K, m1 = 0.1662	1001.47 ± 0.11	–
298.15 K, m1 = 0.1765	1001.73 ± 0.11	–
298.15 K, m1 = 0.1974	–	1538.3 ± 2.5
298.15 K, m1 = 0.2422	–	1547.2 ± 2.5
298.15 K, m1 = 0.2502	1003.6 ± 0.11	–
298.15 K, m1 = 0.2927	–	1557.1 ± 2.5
298.15 K, m1 = 0.2937	1004.66 ± 0.11	–
298.15 K, m1 = 0.3356	1005.72 ± 0.11	–
298.15 K, m1 = 0.3455	–	1567.6 ± 2.5
298.15 K, m1 = 0.3802	1006.75 ± 0.11	–
298.15 K, m1 = 0.3987	–	1578.2 ± 2.5
298.15 K, m1 = 0.4518	–	1588.5 ± 2.6
298.15 K, m1 = 0.5064	–	1599.2 ± 2.6
303.15 K, m1 = 0.02906	996.433 ± 0.11	–
303.15 K, m1 = 0.04398	996.821 ± 0.11	–
303.15 K, m1 = 0.05752	997.168 ± 0.11	–
303.15 K, m1 = 0.0722	997.554 ± 0.11	–
303.15 K, m1 = 0.07899	997.73 ± 0.11	–
303.15 K, m1 = 0.1182	998.731 ± 0.11	–
303.15 K, m1 = 0.1456	999.436 ± 0.11	–
303.15 K, m1 = 0.1662	999.965 ± 0.11	–
303.15 K, m1 = 0.1765	1000.2 ± 0.11	–
303.15 K, m1 = 0.2502	1002 ± 0.11	–
303.15 K, m1 = 0.2937	1003.05 ± 0.11	–
303.15 K, m1 = 0.3356	1004.06 ± 0.11	–
303.15 K, m1 = 0.3802	1005.08 ± 0.11	–
308.15 K, m1 = 0.03034	994.828 ± 0.11	–
308.15 K, m1 = 0.0467	995.242 ± 0.11	–
308.15 K, m1 = 0.05983	995.575 ± 0.11	–
308.15 K, m1 = 0.07535	995.962 ± 0.11	–
308.15 K, m1 = 0.09204	996.388 ± 0.11	–
308.15 K, m1 = 0.121	997.102 ± 0.11	–
308.15 K, m1 = 0.1452	997.702 ± 0.11	–
308.15 K, m1 = 0.1832	998.629 ± 0.11	–
308.15 K, m1 = 0.2191	999.468 ± 0.11	–
308.15 K, m1 = 0.2631	1000.51 ± 0.11	–
308.15 K, m1 = 0.2977	1001.31 ± 0.11	–
308.15 K, m1 = 0.3367	1002.21 ± 0.11	–
308.15 K, m1 = 0.3802	1003.17 ± 0.11	–
313.15 K, m1 = 0.03034	992.995 ± 0.11	–
313.15 K, m1 = 0.0467	993.401 ± 0.11	–
313.15 K, m1 = 0.05983	993.731 ± 0.11	–
313.15 K, m1 = 0.07535	994.106 ± 0.11	–
313.15 K, m1 = 0.09204	994.515 ± 0.11	–
313.15 K, m1 = 0.121	995.217 ± 0.11	–
313.15 K, m1 = 0.1452	995.792 ± 0.11	–
313.15 K, m1 = 0.1832	996.685 ± 0.11	–
313.15 K, m1 = 0.2191	997.538 ± 0.11	–
313.15 K, m1 = 0.2631	998.53 ± 0.11	–
313.15 K, m1 = 0.2977	999.299 ± 0.11	–
313.15 K, m1 = 0.3367	1000.18 ± 0.11	–
313.15 K, m1 = 0.3802	1001.15 ± 0.11	–

CC(C)C[C@H](N)C(=O)[O-].CCCCn1cc[n+](C)c1 [1-butyl-3-methylimidazolium L-leucinate] + O
Conditions	mass density [kg/m3]	speed of sound [m/s]
293.15 K, m1 = 0.03697	999.215 ± 0.11	–
293.15 K, m1 = 0.05641	999.729 ± 0.11	–
293.15 K, m1 = 0.07287	1000.17 ± 0.11	–
293.15 K, m1 = 0.09146	1000.67 ± 0.11	–
293.15 K, m1 = 0.1132	1001.23 ± 0.11	–
293.15 K, m1 = 0.1544	1002.32 ± 0.11	–
293.15 K, m1 = 0.1911	1003.25 ± 0.11	–
293.15 K, m1 = 0.2335	1004.32 ± 0.11	–
293.15 K, m1 = 0.2827	1005.52 ± 0.11	–
293.15 K, m1 = 0.3424	1007.01 ± 0.11	–
293.15 K, m1 = 0.3957	1008.25 ± 0.11	–
293.15 K, m1 = 0.4527	1009.6 ± 0.11	–
293.15 K, m1 = 0.5127	1010.96 ± 0.11	–
298.15 K, m1 = 0.03697	998.03 ± 0.11	–
298.15 K, m1 = 0.04773	–	1507.7 ± 2.5
298.15 K, m1 = 0.05641	998.525 ± 0.11	–
298.15 K, m1 = 0.07287	998.954 ± 0.11	–
298.15 K, m1 = 0.09146	999.435 ± 0.11	–
298.15 K, m1 = 0.1038	–	1519.1 ± 2.5
298.15 K, m1 = 0.1132	999.978 ± 0.11	–
298.15 K, m1 = 0.1495	–	1528.5 ± 2.5
298.15 K, m1 = 0.1544	1001.01 ± 0.11	–
298.15 K, m1 = 0.1911	1001.9 ± 0.11	–
298.15 K, m1 = 0.1994	–	1538.3 ± 2.5
298.15 K, m1 = 0.2335	1002.93 ± 0.11	–
298.15 K, m1 = 0.2447	–	1547.3 ± 2.5
298.15 K, m1 = 0.2827	1004.13 ± 0.11	–
298.15 K, m1 = 0.2957	–	1557.1 ± 2.5
298.15 K, m1 = 0.3424	1005.51 ± 0.11	–
298.15 K, m1 = 0.3491	–	1567.5 ± 2.5
298.15 K, m1 = 0.3957	1006.7 ± 0.11	–
298.15 K, m1 = 0.4035	–	1577.8 ± 2.5
298.15 K, m1 = 0.4527	1008.01 ± 0.11	–
298.15 K, m1 = 0.4605	–	1588.7 ± 2.6
298.15 K, m1 = 0.5127	1009.37 ± 0.11	–
298.15 K, m1 = 0.5164	–	1599.4 ± 2.6
303.15 K, m1 = 0.03697	996.605 ± 0.11	–
303.15 K, m1 = 0.05641	997.088 ± 0.11	–
303.15 K, m1 = 0.07287	997.496 ± 0.11	–
303.15 K, m1 = 0.09146	997.966 ± 0.11	–
303.15 K, m1 = 0.1132	998.492 ± 0.11	–
303.15 K, m1 = 0.1544	999.496 ± 0.11	–
303.15 K, m1 = 0.1911	1000.35 ± 0.11	–
303.15 K, m1 = 0.2335	1001.35 ± 0.11	–
303.15 K, m1 = 0.2827	1002.52 ± 0.11	–
303.15 K, m1 = 0.3424	1003.84 ± 0.11	–
303.15 K, m1 = 0.3957	1005.02 ± 0.11	–
303.15 K, m1 = 0.4527	1006.25 ± 0.11	–
303.15 K, m1 = 0.5127	1007.54 ± 0.11	–
308.15 K, m1 = 0.03562	994.921 ± 0.11	–
308.15 K, m1 = 0.05661	995.428 ± 0.11	–
308.15 K, m1 = 0.07558	995.879 ± 0.11	–
308.15 K, m1 = 0.0961	996.37 ± 0.11	–
308.15 K, m1 = 0.114	996.791 ± 0.11	–
308.15 K, m1 = 0.1577	997.799 ± 0.11	–
308.15 K, m1 = 0.1946	998.637 ± 0.11	–
308.15 K, m1 = 0.2469	999.798 ± 0.11	–
308.15 K, m1 = 0.2813	1000.57 ± 0.11	–
308.15 K, m1 = 0.345	1001.95 ± 0.11	–
308.15 K, m1 = 0.3992	1003.13 ± 0.11	–
308.15 K, m1 = 0.4555	1004.31 ± 0.11	–
308.15 K, m1 = 0.5127	1005.43 ± 0.11	–
313.15 K, m1 = 0.03562	993.087 ± 0.11	–
313.15 K, m1 = 0.05661	993.589 ± 0.11	–
313.15 K, m1 = 0.07558	994.031 ± 0.11	–
313.15 K, m1 = 0.0961	994.501 ± 0.11	–
313.15 K, m1 = 0.114	994.919 ± 0.11	–
313.15 K, m1 = 0.1577	995.899 ± 0.11	–
313.15 K, m1 = 0.1946	996.701 ± 0.11	–
313.15 K, m1 = 0.2469	997.848 ± 0.11	–
313.15 K, m1 = 0.2813	998.573 ± 0.11	–
313.15 K, m1 = 0.345	999.913 ± 0.11	–
313.15 K, m1 = 0.3992	1001.03 ± 0.11	–
313.15 K, m1 = 0.4555	1002.11 ± 0.11	–
313.15 K, m1 = 0.5127	1003.22 ± 0.11	–

Source: the NIST ThermoML archive (doi:10.1016/j.jct.2014.07.026)
